Assay results published in patent US20260191807A1, “COMPOSITIONS AND METHODS FOR TREATMENT OF PRADER-WILLI SYNDROME” (ERX Pharmaceuticals Inc., priority 2022, published 2026).
Where two headings read alike, the source gives them in different places.

Assays:
C57BL/6 DIO mice [1] = assay: Daily food intake of C57BL/6 DIO mice; assay type: in vivo; details: for Food intake (food weights in g/day): Belaronib 0.3 mg/kg SC, Celastrol 0.2 mg/kg IP daily, mean
Procedure: (§1) C57BL/6 mice were treated with test compound (Celastrol) or controls as shown in the table below from Day 1 to Day 15. […] One mouse was excluded from the study because it appeared resistant to nestlet shredding prior to treatment.
(§2) Male C57BL/6 DIO mice were obtained from Jackson Labs (Bar Harbor, ME). The mice arrived at ages 17 weeks and mice were housed 3 per cage on arrival. Prior to dosing in the study, the mice were singly housed.
(§3) All treatment volumes were 10 mL/kg. Utilizing the art-recognized nestlet shredding mouse model, […]. Celastrol and the vehicle control were administered intraperitoneally using a 30G needle. Beloranib was administered subcutaneously using a 30G needle. All treatments were administered daily in the afternoon at 17:00 h, 1 hour before dark cycle from Day 1 to end of dosing.
(§4) Celastrol was dissolved in a pharmaceutically-acceptable excipient, e.g., 50% Solutol/50% DMAC, and this stock solution aliquoted and stored at −80° C. until treatment day. On the day of treatment, an aliquot of the stock solution was thawed and diluted […] with saline to obtain the desired dosing solution strength in 5% Solutol/5% dimethylacetamide/90% saline. The vehicle control was 5% Solutol/5% dimethylacetamide/90% saline. Beloranib was dissolved in 100% DMSO, and this stock solution was aliquoted and stored at −80° C. until treatment day. On the day of treatment, an aliquot of the stock solution was thawed and diluted 1:10 with deionized (DI) water to obtain the desired dosing solution strength in 10% DMSO.
Daily food intake was calculated based on remaining food weight compared to food weight on the previous day using an Ohaus model CS 200 balance.

C57BL/6 DIO mice [2] = assay: Nestlet shredding test in C57BL/6 DIO mice; assay type: in vivo; details: Belaronib 0.3 mg/kg SC, Celastrol 0.2 mg/kg IP daily, mean
Procedure: as §1, §2, §3, §4
The nestlet shredding test is an art-recognized animal model for human repetitive, anxiety, and/or compulsive behaviors. In the nestlet shredding test, a nestlet comprised of pulped fiber, e.g., cotton fiber, is preweighed and placed on top of cage bedding and the amount of the nestlet remaining intact after a test session of pre-determined time is evaluated.
Nestlet shredding was determined on day 1, day 6, day 11 and day 15 by placing a fresh nestlet prior to the dark cycle and measuring the weight of the remaining nestlet at 12 and 24 hours on an Ohaus model CS 200 balance. Percent shredding was calculated based on the initial nestlet weight.

C57BL/6 DIO mice [3] = assay: Body weights of C57BL/6 DIO mice during daily treatment; assay type: in vivo; details: Celastrol 0.2 mg/kg IP daily; for Body weights (expressed as a percentage of day-1 weight) / Body weights (in grams): Belaronib 0.3 mg/kg SC, mean
Participants with PWS = details: cited from earlier work; for weight change, mean difference: p<0.0001

CO[C@@H]1[C@H](OC(=O)/C=C/c2ccc(OCCN(C)C)cc2)CC[C@]2(CO2)[C@H]1[C@@]1(C)O[C@@H]1CC=C(C)C [Belaronib, Beloranib, reference compound]
cumulative food intake, average total for the study (C57BL/6 DIO mice [1]; 15-day study, Beloranib 0.3 mg/kg SC, celastrol 0.2 mg/kg IP daily, vehicle 32.6 g): 28.1 g/mouse | effect on food intake (in words) (C57BL/6 DIO mice [1]; Celastrol compared with positive control Beloranib): rebounded | Food intake (food weights in g/day) (C57BL/6 DIO mice [1]; Day 1): 3.1 g/day | Food intake (food weights in g/day) (C57BL/6 DIO mice [1]; Day 2): 1.5 g/day | Food intake (food weights in g/day) (C57BL/6 DIO mice [1]; Day 3): 2.3 g/day | Food intake (food weights in g/day) (C57BL/6 DIO mice [1]; Day 4): 1.9 g/day | Food intake (food weights in g/day) (C57BL/6 DIO mice [1]; Day 5): 1.4 g/day | Food intake (food weights in g/day) (C57BL/6 DIO mice [1]; Day 6): 1.2 g/day | Food intake (food weights in g/day) (C57BL/6 DIO mice [1]; Day 7): 1.1 g/day | Food intake (food weights in g/day) (C57BL/6 DIO mice [1]; Day 8): 1.5 g/day | Food intake (food weights in g/day) (C57BL/6 DIO mice [1]; Day 9): 1.1 g/day | Food intake (food weights in g/day) (C57BL/6 DIO mice [1]; Day 10): 1.9 g/day | Food intake (food weights in g/day) (C57BL/6 DIO mice [1]; Day 11): 2.2 g/day | Food intake (food weights in g/day) (C57BL/6 DIO mice [1]; Day 12): 2.6 g/day | Food intake (food weights in g/day) (C57BL/6 DIO mice [1]; Day 13): 2.2 g/day | Food intake (food weights in g/day) (C57BL/6 DIO mice [1]; Day 14): 2.2 g/day | Food intake (food weights in g/day) (C57BL/6 DIO mice [1]; Day 15): 2.1 g/day | food intake after rebound, similar to vehicle (C57BL/6 DIO mice [1]; day 10-11, 0.3 mg/kg SC daily): 2.2 g/day/mouse | food intake, nadir (C57BL/6 DIO mice [1]; reduction initiated on day 2-3, 0.3 mg/kg SC daily): 1.1 g/day/mouse | Nestlet Shredding (percent of nestlet shredded) (C57BL/6 DIO mice [2]; Day 1, 12 hour): 95.5% | Nestlet Shredding (percent of nestlet shredded) (C57BL/6 DIO mice [2]; Day 6, 12 hour): 11.9% | Nestlet Shredding (percent of nestlet shredded) (C57BL/6 DIO mice [2]; Day 6, 24 hour): 15.7% | Nestlet Shredding (percent of nestlet shredded) (C57BL/6 DIO mice [2]; Day 11, 12 hour): 3.8% | Nestlet Shredding (percent of nestlet shredded) (C57BL/6 DIO mice [2]; Day 11, 24 hour): 5.2% | Nestlet Shredding (percent of nestlet shredded) (C57BL/6 DIO mice [2]; Day 15, 12 hour): 27.6% | Nestlet Shredding (percent of nestlet shredded) (C57BL/6 DIO mice [2]; Day 15, 24 hour): 32.9% | Body weights (expressed as a percentage of day-1 weight) (C57BL/6 DIO mice [3]; Day 1): 100.0% | Body weights (in grams) (C57BL/6 DIO mice [3]; Day 1): 46.4 grams | Body weights (expressed as a percentage of day-1 weight) (C57BL/6 DIO mice [3]; Day 2): 98.0% | Body weights (in grams) (C57BL/6 DIO mice [3]; Day 2): 45.5 grams | Body weights (expressed as a percentage of day-1 weight) (C57BL/6 DIO mice [3]; Day 3): 96.1% | Body weights (in grams) (C57BL/6 DIO mice [3]; Day 3): 44.6 grams | Body weights (expressed as a percentage of day-1 weight) (C57BL/6 DIO mice [3]; Day 4): 94.0% | Body weights (in grams) (C57BL/6 DIO mice [3]; Day 4): 43.6 grams | Body weights (expressed as a percentage of day-1 weight) (C57BL/6 DIO mice [3]; Day 5): 91.0% | Body weights (in grams) (C57BL/6 DIO mice [3]; Day 5): 42.2 grams | Body weights (expressed as a percentage of day-1 weight) (C57BL/6 DIO mice [3]; Day 6): 87.7% | Body weights (in grams) (C57BL/6 DIO mice [3]; Day 6): 40.7 grams | Body weights (expressed as a percentage of day-1 weight) (C57BL/6 DIO mice [3]; Day 7): 85.2% | Body weights (in grams) (C57BL/6 DIO mice [3]; Day 7): 39.5 grams | Body weights (expressed as a percentage of day-1 weight) (C57BL/6 DIO mice [3]; Day 8): 83.1% | Body weights (in grams) (C57BL/6 DIO mice [3]; Day 8): 38.5 grams | Body weights (expressed as a percentage of day-1 weight) (C57BL/6 DIO mice [3]; Day 9): 80.6% | Body weights (in grams) (C57BL/6 DIO mice [3]; Day 9): 37.4 grams | Body weights (expressed as a percentage of day-1 weight) (C57BL/6 DIO mice [3]; Day 10): 79.2% | Body weights (in grams) (C57BL/6 DIO mice [3]; Day 10): 36.7 grams | Body weights (expressed as a percentage of day-1 weight) (C57BL/6 DIO mice [3]; Day 11): 77.9% | Body weights (in grams) (C57BL/6 DIO mice [3]; Day 11): 36.1 grams | Body weights (expressed as a percentage of day-1 weight) (C57BL/6 DIO mice [3]; Day 12): 77.1% | Body weights (in grams) (C57BL/6 DIO mice [3]; Day 12): 35.7 grams | Body weights (expressed as a percentage of day-1 weight) (C57BL/6 DIO mice [3]; Day 13): 76.2% | Body weights (in grams) (C57BL/6 DIO mice [3]; Day 13): 35.3 grams | Body weights (expressed as a percentage of day-1 weight) (C57BL/6 DIO mice [3]; Day 14): 75.2% | Body weights (in grams) (C57BL/6 DIO mice [3]; Day 14): 34.8 grams | Body weights (expressed as a percentage of day-1 weight) (C57BL/6 DIO mice [3]; Day 15): 74.4% | Body weights (in grams) (C57BL/6 DIO mice [3]; Day 15): 34.5 grams | body weight lost (percentage of day 1 body weight) (C57BL/6 DIO mice [3]; at day 15, Beloranib 0.3 mg/kg SC, vehicle-treated mice lost 15.5%): 25.6% | weight change, mean difference (Participants with PWS; 1.8 mg beloranib injection biweekly for 26 weeks, 95% CI −10.8 to −5.6): −8.2% | most frequent adverse event (Participants with PWS; 1.8 mg or 2.4 mg injection biweekly): Injection site bruising | weight change, mean difference (Participants with PWS; 2.4 mg beloranib injection biweekly for 26 weeks, 95% CI −12.1 to −6.8): −9.5% | venous thrombotic events in beloranib-treated participants (Participants with PWS; imbalance compared to placebo, dosing stopped early): two fatal events of pulmonary embolism and two events of deep vein thrombosis
